Reference: patent US6416642B1, “Method and apparatus for continuous liquid flow in microscale channels using pressure injection, wicking, and electrokinetic injection” (Caliper Technologies Corp., priority 1999, dated 2002)

Tested on: purinergic, P2Y receptor
Assay: Calcium flux assay in continuous-flow microfluidic device (Fluo-3 fluorescence)
Format: cell-based
Conditions: THP-1 cells loaded with Fluo-3; UTP 0-3 μM; FIG. 13 upper trace
Description: Using a continuous flow format in planar chips using a wick to generate constant pressure driven flow, cells were mixed with an agonist and down-stream fluorescence detectors were used to monitor indicator cells using Fluo-3 (Molecular Probes Inc.) calcium sensitive fluorescent dye as a probe for receptor activation of calcium fluxes. THP-1 cells were loaded with Fluo-3 by incubation with a 4 μM concentration of the Fluo-3 AM (acetoxymethyl ester) in Hank's Balanced Salt Solution(HBSS) containing 20 mM HEPES, pH 7.0, and 1 mg/ml bovine serum albumin. After a 40 minute incubation at 37° C., Syto-6, a fluorescent DNA stain, was added to 2.5 μM, and the cells were incubated for an additional 10 minutes at room temperature. The cells were then washed free of excess dye by pelleting at 300×g for 5 minutes and resuspending and repelleting. The cells were resuspended in Cell Buffer (HBSS containing 20 mM HEPES, pH 7.0, 1 mg/ml BSA and 10% Optiprep). […]
By taking the ratio of the two fluorescent dyes, it is possible to normalize the calcium flux response in the THP-1 cells since the DNA staining intensity is a constant in diploid, resting cells, and thereby quantitate the increase in calcium concentration.

O=c1ccn([C@@H]2O[C@H](COP(=O)(O)OP(=O)(O)OP(=O)(O)O)[C@@H](O)[C@H]2O)c(=O)[nH]1 [UTP]
fluorescence of the calcium sensitive dye (intracellular free calcium): increases with UTP treatment in a dose dependent manner
